Laboratory results: patent publication US20070037194A1, “Allelic variation in the serotonin transporter (SERT) as an indicator of autism” (priority 2005, published 2007)

Columns and labels:
[1] = test system: SERT Ala56; format: cell-based, human; conditions: homozygous Ala56 cells preincubated for various times at 37° C. with 10 μM 8BrcGMP
Method: (§1) Homozygous Ala56 cells (10^6/tube) were preincubated for various times at 37° C. with 10 μM 8BrcGMP prior to [^3H]5-HT transport assays.
(§2) Functional Analysis of Gly56Ala Activity and Regulation. EBV-transformed lymphocyte cell lines from AGRE or Tufts/Vanderbilt autism families carrying either the Gly56 or 56Ala alleles were obtained from the NIMH Human Genetics Initiative Repository (www.nimhgenetics.org/) at Rutgers University. […] Lymphocytes were pelleted at 1500 rpm, 5 min and washed with KRH assay buffer. A total of 1×10^6 cells in triplicate were pre-warmed (37° C.) in a shaking water bath (10 min) in 12×75 polypropylene tubes in KRH buffer containing 100 μM pargyline and 100 μM ascorbic acid. After a 5-min incubation with [^3H]5-HT (20 nM) at 37° C., uptake assays were terminated by immersion on ice, and uptake in pelleted, 1% SDS-extracted cells quantitated by scintillation spectrometry. Specific 5-HT uptake was determined by subtracting the amount of [^3H]5-HT accumulated in the presence of 10 μM paroxetine (SmithKline Beecham). [^3H]L-glutamate transport assays were conducted as described for [^3H]5-HT except using 100 nM substrate and defining nonspecific uptake with parallel accumulation acquired at 4° C.

[2] = test system: Gly56 SERT; format: cell-based, human; conditions: coincubation with PKG inhibitor H8 at 10 μM; data not shown
Method: as §1, §2

| SMILES | sensitivity of SERT Ala56 [3H]5-HT transport to 8BrcGMP [1] | block of 8BrcGMP effects on Gly56 SERT [2] |
| --- | --- | --- |
| Nc1nc2c(nc(Br)n2[C@@H]2O[C@@H]3COP(=O)(O)O[C@H]3[C@H]2O)c(=O)[nH]1 [8BrcGMP] | lacks sensitivity | – |
| CNCCNS(=O)(=O)c1cccc2cnccc12 [H8] | – | completely blocked |
